This is an account of results in patent US20250236642A1, “PHARMACEUTICAL COMPOSITION FOR TREATMENT OR PREVENTION OF ADULT T-CELL LEUKEMIA” (NEC Corporation, priority 2022, published 2025).

Test [1] deals with HLA-A*24:02 molecule (Homo sapiens, UniProt P04439, D101N/D140Y/D185E/E176V/E190D/F33S/G103R/G107R/I119L/I121M/I306V/K335N/L105A/L180Q/L300P/N151K/N90K/Q86E/Q94H/R106L/R138H/R89G/T104I/T345S/V100E/W191G/Y123F). The experiment in a line: Binding of peptide to HLA-A*24:02 molecule using C1R-A24 cells. Here is the method: Measurement of binding ability of a peptide to an HLA-A*24:02 molecule, which is a product of an HLA-A*24:02 gene, was performed using C1R-A24 cells expressing an HLA-A*24:02 molecule (Cells created by Professor Masafumi Takiguchi, Kumamoto University, was provided by Assistant Professor Masaki Yasukawa, Ehime University, with permission).
First, the C1R-A24 cells were exposed to acidic conditions at pH 3.3 for 30 seconds to dissociate and remove an endogenous peptide originally binding to an HLA-A*24:02 molecule and light chain β2m commonly associated with an HLA class I molecule. After neutralization, purified β2m was added to the C1R-A24 cells, and the mixture was added to a peptide dilution series and incubated on ice for four hours.
Thereafter, the number of MHC-peps for each C1R-A24 cell (proportional to a fluorescence intensity of the fluorescent antibody) was quantitatively measured using a fluorescence cell analyzer FACScan (Becton-Dickinson).

The target of test [2] is T1, HLA-A*02:01 molecule (Homo sapiens, UniProt P04439, D140Y/D185E/D98H/E176V/E277Q/G131W/G231S/I119V/I121R/I166T/I218V/L300P/L318F/N151K/N90K/P208A/P217A/Q86G/Q94H/R138H/R169H/T345S).
T1 construct: using a cell line T2 (purchased from ATCC) expressing an HLA-A*02:01 molecule; host or cells: T2 cell line
Kind of test: Binding of peptide to HLA-A*02:01 molecule using cell line T2. How it is done: Measurement of binding ability of a peptide to an HLA-A*02:01 molecule, which is a product of an HLA-A*02:01 gene, was performed using a cell line T2 (purchased from ATCC) expressing an HLA-A*02:01 molecule.
T2 cells and purified β2m were added to a serial dilution series of a peptide whose binding ability was to be measured, and then the mixture was incubated at 37° C. for four hours. HLA-A*02:01 molecules whose expression level increased in a peptide concentration-dependent manner by this time point were stained using an association-type specific fluorescently labeled monoclonal antibody BB7.2.
Thereafter, the amount of fluorescence per cell was measured with a flow cytometer, and a dissociation constant Kd value was calculated by the method disclosed in the article (Udaka et al., Immunogenetics, 51, 816-828, 2000) by the present inventor.

The target of test [3] is T2, HLA-A*02:06 molecule (Homo sapiens, UniProt P04439, D140Y/D185E/D98H/E176V/E277Q/F33Y/G131W/G231S/I119V/I121R/I166T/I218V/L300P/L318F/N151K/N90K/P208A/P217A/Q86G/Q94H/R138H/R169H/T345S).
T2 construct: expressed in transfected cells; host or cells: RA2.6 cells (mouse TAP-deficient RMAS with HLA-A*02:06 cDNA)
Kind of test: Binding of peptide to HLA-A*02:06 molecule using RA2.6 cells. Here is the method:
Measurement of binding ability of a peptide to an HLA-A*02:06 molecule, which is a product of an HLA-A*02:06 gene, was performed using RA2.6 cells (a cell line newly created at Kochi University) obtained by introducing cDNA of the HLA-A*02:06 gene into RMAS, which is a mouse transporter associated with antigen processing (TAP)-deficient cell line.
A fluorescently labeled monoclonal antibody BB7.2 that specifically recognizes a peptide binding type HLA-A*02:06 molecule was added thereto, and the mixture was incubated on ice for 20 minutes to stain the cells.

Setting [4] is: Table 2, dissociation constant Kd value (−log Kd value), >−3.0 = no significant binding ability, read-out: Measured value of allele A*24:02 (converted).
[5] abbreviates: Table 2, dissociation constant Kd value (−log Kd value), >−3.0 = no significant binding ability, read-out: Measured value of allele A*02:01 (converted).
Setting [6] is: Table 2, dissociation constant Kd value (−log Kd value), >−3.0 = no significant binding ability, read-out: Measured value of allele A*02:06 (converted).
The mark [7] stands for this setting: Table 4, Kd value (−log Kd value), smaller than −3 = binding property, read-out: Measured value of allele A*24:02 (converted).
The mark [8] stands for this setting: Table 4, Kd value (−log Kd value), smaller than −3 = binding property, read-out: Measured value of allele A*02:01 (converted).

Read-outs that look alike come from different tables or passages of the source. No end group written: not given here.

Consider LLNPNRQTI [compound 23], for which the values for the Kd in test [1] (setting [4]), in test [2] (setting [5]) and in test [3] (setting [6]) were 0.602 µM, 5.74 µM and 296 µM, respectively.
Consider LMEEHGATL [compound 13], for which the values for the Kd in test [1] (setting [4]), in test [2] (setting [5]) and in test [3] (setting [6]) were 5.98 µM, 12.1 µM and 2.1 µM, respectively.
In the case of LMITRKSFI [compound 17], the results for the Kd in test [1] (setting [4]), in test [2] (setting [5]) and in test [3] (setting [6]) were 0.972 µM, 6.26 µM and 29.3 µM, respectively.
In the case of LPFSPSQFL [compound 60], the Kd in test [1] (setting [4]) was 448 µM; in test [2] (setting [5]), more than 1000 µM; in test [3] (setting [6]), more than 1000 µM.
LPPARHSTI [compound 76]: the Kd in test [1] (setting [4]), in test [1] (setting [7]), in test [2] (setting [5]) and in test [3] (setting [6]) was more than 1000 µM throughout.
Consider LTEEHGATL [compound 42], for which the Kd in test [1] (setting [4]) was more than 1000 µM; in test [1] (setting [7]), more than 1000 µM; in test [2] (setting [5]), 82.1 µM; in test [3] (setting [6]), 11.9 µM.
For the sequence LTITRKSFI [compound 45], the figures for the Kd in test [1] (setting [4]), in test [2] (setting [5]) and in test [3] (setting [6]) were 15 µM, more than 1000 µM and 162 µM, respectively.
As to LVEEHGATL [compound 43], the Kd in test [1] (setting [4]) was more than 1000 µM; in test [1] (setting [7]), more than 1000 µM; in test [2] (setting [5]) it was 66.1 µM; in test [3] (setting [6]), 13.7 µM.
Regarding LVITRKSFI [compound 30], the values for the Kd in test [1] (setting [4]), in test [2] (setting [5]) and in test [3] (setting [6]) were 3.47 µM, 97.6 µM and 243 µM, respectively.
As to MLPQTPSHL [compound 24], the figures for the Kd in test [1] (setting [4]), in test [2] (setting [5]) and in test [3] (setting [6]) were 0.0716 µM, 2.64 µM and 109 µM, respectively.
Consider SLLITRKSF [compound 62], for which the Kd is 1.44 µM in test [1] (setting [4]), more than 1000 µM in test [2] (setting [5]) and more than 1000 µM in test [3] (setting [6]).
As for SLPFSPSQF [compound 56], the Kd in test [1] (setting [4]) is 0.1 µM; in test [2] (setting [5]), more than 1000 µM; in test [3] (setting [6]), more than 1000 µM.
As to SLPNEKQTS [compound 69], the Kd in test [1] (setting [4]), in test [1] (setting [7]), in test [2] (setting [5]) and in test [3] (setting [6]) was more than 1000 µM in each case.
As to SLVLTWAAL [compound 14], the Kd in test [1] (setting [4]) is 4.89 µM; in test [2] (setting [5]) it was 2.36 µM; in test [3] (setting [6]), 0.572 µM.
On to SPDEFSNDF [compound 73], for which the Kd in test [1] (setting [4]), in test [1] (setting [7]), in test [2] (setting [5]) and in test [3] (setting [6]) was more than 1000 µM in each case.
Consider SSFEFFEEA [compound 37], for which the Kd in test [1] (setting [4]) is more than 1000 µM; in test [1] (setting [7]) it was more than 1000 µM; in test [2] (setting [5]) it was 0.32 µM; in test [3] (setting [6]), 0.0377 µM.
SSLDPPKVL [compound 55]: the Kd is 4.47 µM in test [1] (setting [4]), more than 1000 µM in test [2] (setting [5]) and more than 1000 µM in test [3] (setting [6]).
Take STGESAQTS [compound 71]: the Kd in test [1] (setting [4]), in test [1] (setting [7]), in test [2] (setting [5]) and in test [3] (setting [6]) was more than 1000 µM each time.
In the case of THLDAGTVE [compound 75], the Kd in test [1] (setting [4]), in test [1] (setting [7]), in test [2] (setting [5]) and in test [3] (setting [6]) was more than 1000 µM in each case.
Regarding TLTAWQHGL [compound 33], the Kd is 20.1 µM in test [1], 1.11 µM in test [2] and 1.42 µM in test [3].
With TVLVPPRNL [compound 48], the Kd was 5.36 µM in test [1] (setting [4]); 5.36 µM in test [1] (setting [7]); more than 1000 µM in test [2] (setting [5]); more than 1000 µM in test [2] (setting [8]); more than 1000 µM in test [3] (setting [6]). For the same sequence, in test [3] (Table 4, Kd value (−log Kd value), smaller than −3 = binding property), the “Measured value of allele A*02:06” value is reported as more than −3.
In the case of VFGRVMQID [compound 66], the Kd is 3.87 µM in test [1] (setting [4]), more than 1000 µM in test [2] (setting [5]) and more than 1000 µM in test [3] (setting [6]).
Take VLLQQFQTA [compound 15]: the Kd in test [1] (setting [4]) is 2.81 µM; in test [2] (setting [5]), 19.3 µM; in test [3] (setting [6]), 3.4 µM.
On to VLPPARHST [compound 54], for which the Kd in test [1] (setting [4]) is more than 1000 µM; in test [1] (setting [7]), more than 1000 µM; in test [2] (setting [5]) it was 7.73 µM; in test [3] (setting [6]) it was more than 1000 µM.
On to VMQIDGVQP [compound 67], for which the Kd in test [1] (setting [4]) is more than 1000 µM; in test [1] (setting [7]), more than 1000 µM; in test [2] (setting [5]), more than 1000 µM; in test [3] (setting [6]), 389 µM.
Consider VMSHHGEKL [compound 19], for which the Kd in test [1] (setting [4]) was 0.793 µM; in test [2] (setting [5]) it was 8.32 µM; in test [3] (setting [6]) it was 50.4 µM.
The matching figures for YFFTVIFSF [compound 44]: 0.168 µM, more than 1000 µM and more than 39.8 µM.
Turning to YLYDPPTTI [compound 4], the Kd in test [1] (setting [4]) was 0.692 µM; in test [2] (setting [5]), 0.583 µM; in test [3] (setting [6]), 1.36 µM.
Turning to YPGWHSTTI [compound 52], the Kd in test [1] (setting [4]) is 2.18 µM; in test [2], more than 1000 µM; in test [3] (setting [6]) it was more than 1000 µM.
YQLSPPITW [compound 32]: the Kd was 1.72 µM in test [1] (Measured value of allele A*24:02, Table 2, dissociation constant Kd value (−log Kd value), >−3.0 = no significant binding ability); 0.172 µM in test [1] (Measured value of allele A*24:02, Table 4, Kd value (−log Kd value), smaller than −3 = binding property); 351 µM in test [2]; 1.78 µM in test [3].
YTYDPPTTI [compound 3]: the Kd was 3.11 µM in test [1] (setting [4]); 0.336 µM in test [2] (setting [5]); 3.36 µM in test [2] (setting [8]); 0.669 µM in test [3] (Table 4, Kd value (−log Kd value), smaller than −3 = binding property, read-out: Measured value of allele A*02:06 (converted)).
Turning to YVYDPPTTI [compound 2], the Kd was 0.584 µM in test [1] (setting [4]), 0.696 µM in test [2] (setting [5]) and 2.8 µM in test [3] (setting [6]).
